Experiments:
Myc-Cap (MC) cells = experiment: Cell death and autophagy of Myc-Cap cells in vitro (Annexin V/PI, LC3A flow cytometry); format: cell-based, mouse; conditions: for apoptotic cell death of MC cells (Annexin V, propidium iodide): both at 20 µM
Description: (§1) All results are means±s.e.m.
For adoptive T cell transfer (ATCT) CD8^+ T cells were isolated from single cell suspensions, prepared from spleens and lymph nodes as described above, using CD8α-specific microbeads and MACS-columns (both Miltenyi Biotec GmbH, Bergisch Gladbach, Germany), and 5×10^6 CD8^+ T cells were transferred intraperitoneally (i.p.; FIG. 14a-j). For adoptive B cell transfer (ABCT), B cells (B220^+/CD19^+) were isolated from single cell suspensions prepared from spleens using CD19- and B220-specific microbeads and MACS-columns, and 5×10^6 B cells were transferred i.p. (FIG. 4g-h, FIG. 12n,o). For adoptive splenocytes transfer (ACT), single cell suspensions prepared from spleens were transferred i.p., with one total spleen injected per mouse. Labelling with 5-(and 6-) carboxyfluorescein diacetate succinimidyl ester (CFSE; Molecular Probes, Eugene, Oreg.) was done according to manufacturer's protocol. 5×10^6 CD8^+ T cells or 7×10^6 B cells were transferred (equal to one spleen per mouse; FIG. 5a-i and FIG. 14k-q). For combined adoptive B and T cell transfer (FIG. 5j-1, FIG. 14r-t), T cells were isolated from WT-FVB mice immunized with a Myc-Cap cell lysate as previously described^10. […] The extent of cell death was determined by flow cytometry, showing that more than 90% of cells were positive for Annexin V and PI. The dead cells were injected subcutaneously (s.c.) into WT-FVB mice. Seven days later, T cells were isolated from single cell suspensions of spleen and LN using a Pan T cell isolation Kit (Miltenyi Biotec). B cells were isolated from spleens of naïve FVB-WT or FVB-Tgfbr2^ΔB mice using a Pan B cell isolation kit (Miltenyi Biotec). MC-tumor bearing Rag1^−/− mice received 5×10^6 T cells with or without 5×10^6 B cells (98% pure) from WT or Tgfbr2^ΔB mice. Purity was analyzed on a Beckman Coulter Cyan ADP flow cytometer and was always >98%.

Myc-Cap (MC) tumors = experiment: s.c. Myc-Cap (MC) prostate tumor model; format: in vivo, mouse; conditions: for regression of MC tumors raised in Jh−/− mice: LD, 3 weekly cycles, tumors 400 mm3
Description: (§2) All TRAMP mice, their derivatives and s.c. Myc-Cap transplantation were in the FVB genetic background and their basic immune parameters are shown in FIG. 15a-m. For s.c. TRAMP-C2 tumors, C57BL/6 mice were used. In both s.c. tumors, 2-3×10^6 cells/mouse were transplanted. More detailed information is as follows.
(§3) Mouse treatment studies were “matched design control trials.” Accordingly, mice were randomly chosen and paired based on sex (male), age (FIG. 6a) and tumor size. For transplanted tumor models, tumor size was defined by the median tumor volume (e.g. 400 mm^3, for late treatments, FIG. 6a,f). For TRAMP transgenic tumor models, treatment decisions were made based on age and mice were randomly chosen including a control littermate. An identification code was assigned to each tumor-bearing mouse both in the transplanted and transgenic models, and the investigators were blinded to treatment allocation at the time of tumor volume measurement, autopsy and analysis.
2×10^6 Myc-Cap^11 or 3×10^6 TRAMP-C2^12 cells (purchased from ATCC) were s.c. injected into the right flank. Tumors were measured every 2-3 days using a caliper. Tumor volumes were calculated as width^2×length/2.
B cells were depleted as previously described^13. Mice were weekly injected (i.p.) with a mixture of monoclonal antibodies, each at 150 μg/mouse: rat anti-mouse CD19 (clone 1D3), rat anti-mouse B220 (clone RA36B2), and mouse anti-mouse CD22 (clone CY34). After 48 hrs, the mice were injected with a secondary antibody (mouse anti-rat kappa chain; GeneTex) at 150 μg/mouse. In addition, mice were injected weekly, but not on the same day, with 250 μg/mouse rat anti-mouse CD20 (Genentech). Rat anti-mouse IgG2a and IgG1 were used as isotype controls. Mice were treated for 3 weeks in total (FIG. 1g; FIG. 7i-p). […]

TRAMP-C2 tumors = experiment: s.c. TRAMP-C2 tumor model with adoptive T cell transfer (ATCT); format: in vivo, mouse
Description: Immunogenic TRAMP-C2 cells were s.c. inoculated into WT or Tcrβ^−/− mice. […] Immunogenic TRAMP-C2 cells were s.c. inoculated into WT or Rag1^−/− −×OT-1 mice (no B cells), that harbor CD8^+ T cells specific for chicken ovalbumin which is not expressed by TRAMP-C2 cells. […] All results are means±s.e.m. Mann-Whitney and t tests were used to calculate statistical significance.
For adoptive T cell transfer (ATCT) CD8^+ T cells were isolated from single cell suspensions, prepared from spleens and lymph nodes as described above, using CD8α-specific microbeads and MACS-columns (both Miltenyi Biotec GmbH, Bergisch Gladbach, Germany), and 5×10^6 CD8^+ T cells were transferred intraperitoneally (i.p.; FIG. 14a-j). […] For adoptive splenocytes transfer (ACT), single cell suspensions prepared from spleens were transferred i.p., with one total spleen injected per mouse. Labelling with 5-(and 6-) carboxyfluorescein diacetate succinimidyl ester (CFSE; Molecular Probes, Eugene, Oreg.) was done according to manufacturer's protocol. […] Purity was analyzed on a Beckman Coulter Cyan ADP flow cytometer and was always >98%.

TRAMP prostate tumors = experiment: TRAMP spontaneous prostate cancer model, weekly low dose oxaliplatin; format: in vivo, mouse; conditions: for prostate tumor regression 30 days after lymphocyte transfer: TRAMP
Description: as §2
C57BL/6 and FVB control mice were purchased from Charles River Laboratories and CD45.1 mice^1 were purchased from Jackson Laboratory, and all were bred at the University of California San Diego (UCSD) animal facility. C57BL/6-Tg(TRAMP)8247Ng/J (TRAMP mice)^2 were backcrossed to the FVB strain for more than 10 generations. The median survival of TRAMP-FVB mice was 23 weeks compared to 52 weeks for TRAMP-C57BL/6 mice. TRAMP mice were crossed with B cell-deficient (Jh^−/−) mice^3, CTL-deficient (Cd8a^−/−) mice^4 or Rag1^−/− mice, which lack both B and T cells^5, all in the FVB-background. OT-I mice were obtained from Taconic^6. Tgfbr2^F/F (FVB-background) mice were obtained from Dr. Hal Moses at Vanderbilt University^7. Tcrb^−/−, Cd19-Cre, Il10^−/− and CD45.1 mice were purchased from the Jackson Laboratory. IgA gene-deficient (Iga^−/−) mice^8 were obtained from Baylor College of Medicine. Pdl1/2^−/− mice were obtained from Genentech (San Francisco, Calif.). Cd19-Cre and Iga^−/− mice were backcrossed to the FVB strain for more than 10 generations. All mice were maintained in filter-topped cages on autoclaved food and water at the UCSD animal facility and all experiments were performed in accordance with UCSD and NIH guidelines and regulations.
as §3
Anti-PD-L1 antibody was i.v. injected at 10 mg/kg once, followed by 5 mg/kg bi-weekly. Mice were treated for three weeks for a total of 7 doses/animal.

[1] = tested on: tumor-infiltrating B cells and CD8+ T cells; experiment: Flow cytometry / Q-RT-PCR of tumor-infiltrating lymphocytes in TRAMP and MC tumors; format: in vivo, mouse
Protocol: For lymphocytes isolated from spleen and lymph nodes, standard protocols using filters have been used. Lymphocytes were isolated from human blood using Ficoll-Paque PLUS (GE Healthcare Life Science) according to manufacturer's recommendations. For lymphocyte isolation from tumors (mouse and human), tumors were cut into small pieces and incubated in dissociation solution (RPMI medium supplemented with 5% FBS, collagenase type I (200 U/ml), collagenase type IV (200 U/ml), and DNase I (100 μg/ml) for 30 min at 37° C. After incubation, cell suspensions were passed through a 50 μm cell strainer and washed twice. For large tumors (≥0.7 g), hematopoietic cells were pre-enriched using density gradient centrifugation (Percoll or Ficoll), and red blood cells were lysed (RBC Lysis buffer, multi-species; eBioscience). For blocking of Fc-mediated interactions, mouse cells were pre-incubated with 0.5-1 μg of purified anti-mouse CD16/CD32 (93) per 100 μl and human cells were incubated with FcR blocking reagent (Miltenyi Biotec). Isolated cells were stained with labeled antibodies in PBS with 2% FCS and 2 mM EDTA or cell staining buffer (Biolegend). Dead cells were excluded based on staining with Live/Dead fixable dye (eBioscience). For intracellular cytokine staining, cells were restimulated (Myc-Cap cell lysate, PMA/ionomycin or PMA/ionomycin/LPS, as indicated) in the presence of a protein transport inhibitor cocktail containing Brefeldin A and Monensin (eBioscience), as indicated. For CD107, a staining antibody was added to the culture during the stimulation. After 5 hrs, cells were fixed and permeabilized with BD™ Cytofix/Cytoperm reagent for cytokine staining. BD™ transcription factor buffer was used for Foxp3 and T-bet staining and BD™ Phosflow was used for p-SMAD2/3 and p-STAT staining (BD Biosciences) according to manufacturer's recommendations. After fixation/permeabilization, cells were stained with labeled antibodies of interest. Moreover, Il10 and β-actin mRNA expression were analyzed on single cell level by flow cytometry in combination with CD45, IgA and IL-10 protein staining, using FlowRNA II Assay kit (Affymetrix eBioscience) according to manufacturer's protocols^9. Cells were analyzed on a Beckman Coulter Cyan ADP flow cytometer. Data were analyzed using FlowJo software (Treestar). Immune cell analysis of tumor-free mice of different genetic backgrounds (C57BL/6 and FVB) and different genetic ablations are shown in FIG. 15a-m.
Total RNA was extracted using an RNeasy Plus kit (Qiagen). RNA was reverse transcribed using an IScript kit (Biorad). Q-RT-PCR was performed using Ssofast EvaGreen supermix (Biorad) on a Biorad CFX96 machine. Primer sequences are listed below and generally were obtained from the NIH qPrimerDepot (http://mouseprimerdepot.nci.nih.gov). The relative expression levels of target genes were measured in triplicates and normalized against the level of RPL32 expression. Fold-difference (as relative mRNA expression) was calculated by the comparative CT method (2^(Ct(RPI,32-gene or interest))).

[2] = IgA production and immune parameters in tumor-free mice; format: in vivo, mouse; conditions: LD, tumor-free WT or Tgfbr2ΔB mice
Protocol: as §1
For lymphocytes isolated from spleen and lymph nodes, standard protocols using filters have been used. Lymphocytes were isolated from human blood using Ficoll-Paque PLUS (GE Healthcare Life Science) according to manufacturer's recommendations. […] Moreover, Il10 and β-actin mRNA expression were analyzed on single cell level by flow cytometry in combination with CD45, IgA and IL-10 protein staining, using FlowRNA II Assay kit (Affymetrix eBioscience) according to manufacturer's protocols^9. Cells were analyzed on a Beckman Coulter Cyan ADP flow cytometer. Data were analyzed using FlowJo software (Treestar). […]
Anti-SV40 Tag immunoglobulin ELISA was performed as previously described^33. […] After 24 hrs, the supernatants were analysed for IgA content. […]

serum IgA, IgG = experiment: Serum IgA and IgG ELISA in tumor-bearing mice; format: in vivo, mouse; conditions: TRAMP and MC-tumor models, oxaliplatin alone
Protocol: Anti-SV40 Tag immunoglobulin ELISA was performed as previously described^33. IgA and IgG ELISA kits were purchased from eBioscience, and used according to manufacturer's protocols. Tumoral single cell suspension has been prepared as described above in the flow cytometry section, and was washed 2-3 times with 1×PBS/2mMEDTA/2% FCS, to remove soluble IgA. Thereafter, about 3×10^6 cells/24-well were plated in either 10% FCS/DMEM or Hybridoma medium (Life Technology). After 24 hrs, the supernatants were analysed for IgA content. Media without cells were used as controls.

## N.N.[Cl][Pt][Cl] [cisplatin]
Myc-Cap (MC) cells; 24 hrs
  apoptotic cell death of MC cells (Annexin V, propidium iodide): induced apoptotic cell death
Myc-Cap (MC) tumors; 6 mg/kg
  regression of MC tumors raised in Jh−/− mice: ineffective
Myc-Cap (MC) tumors; MC tumors, 6 mg/kg
  immunogenic activity of low dose treatment: devoid of immunogenic activity

## O=C1[O][Pt]2([NH][C@@H]3CCCC[C@H]3[NH]2)[O]C1=O [oxaliplatin]
TRAMP-C2 tumors; B cell-containing Tcrβ−/− mice
  TRAMP-C2 tumor rejection, oxaliplatin combined with ATCT: no tumor rejection took place
TRAMP-C2 tumors; Rag1−/−, OT-1 mice (no B cells)
  TRAMP-C2 tumor growth, ATCT together with oxaliplatin: tumor growth was inhibited
TRAMP prostate tumors; B cell-deficient TRAMP, Jh−/− mice
  PC growth, late treatment: remained oxaliplatin sensitive
TRAMP prostate tumors; LD oxaliplatin weekly, dependent on CTL
  TRAMP mouse survival: enhanced TRAMP mouse survival
TRAMP prostate tumors; Rag1−/− mice receiving T and B cells
  prostate tumor regression 30 days after lymphocyte transfer: led to tumor regression
TRAMP prostate tumors; Rag1−/− mice receiving only T cells
  prostate tumor regression 30 days after lymphocyte transfer: complete tumor regression
TRAMP prostate tumors; WT TRAMP mice, 6 mg/kg weekly, late treatment
  response of ≥0.7 g tumors to late chemotherapy: largely resistant
TRAMP prostate tumors; early treatment, regardless of B cell status
  response of early (≤0.2 g) TRAMP tumors: responded
Myc-Cap (MC) cells; 24 hrs
  apoptotic cell death of MC cells (Annexin V, propidium iodide): induced apoptotic cell death
Myc-Cap (MC) cells; MC cells, 24 hrs, 20 µM, compared with cisplatin
  stimulation of autophagy (LC3A): more effective in stimulating autophagy
Myc-Cap (MC) cells; Myc-Cap cells, oxaliplatin 40 μM, 48 hrs, flow cytometry
  cells positive for Annexin V and PI (extent of cell death): more than 90%
[1]; MC tumors
  IL-21 expression in tumors: increased IL-21 expression
  Il10 mRNA expression in tumors: increased Il10 mRNA expression
  STAT3 phosphorylation in tumoral B cells: enhanced STAT3 phosphorylation
  proportion of tumoral B cells undergoing TGFβ signaling (p-SMAD2/3, Tgfb1 mRNA): increased the proportion of tumoral B cells undergoing TGFβ signaling
[1]; MC tumors in Jh−/− mice, oxaliplatin versus cisplatin
  abundance of tumor infiltrating CD8+ and CD4+ cells: increased the abundance
[1]; MC tumors, WT and Jh−/− mice, no differences between them
  induction of Nos2, Arg1, IL-12p35 and IL-12p40: induced other immunoregulatory molecules
[1]; TRAMP and MC tumors
  induction of Fas-L and PD-L1 on tumoral B cells: induced Fas ligand (Fas-L) and PD ligand 1 (PD-L1)
[1]; TRAMP and TRAMP, Jh−/− mice
  CD8+ cell recruitment into tumors: stimulated CD8^+ cell recruitment
[1]; TRAMP tumors
  abundance of LTα/β-producing B cells: barely increased
  oxaliplatin-induced IgA+ cells expressing both PD-L1 and IL-10: about 40%
[1]; WT mice bearing MC tumors
  amount of splenic IgA+ cells: modestly increased
[1]; after 3-4 cycles of oxaliplatin treatment
  tumoral B cells that were CD19+B220lowCD138+ plasma cells: at least 40%
[1]; after 3-4 cycles, depending on the tumor model used
  plasma cells that expressed IgA: 40-80%
[1]; after additional cycles
  abundance of IgA+ B cells among B220low cells: ~80%
[1]; after oxaliplatin
  IgA+ B cells expressing both Fas-L and PD-L1: about 50%
[1]; after oxaliplatin cycles
  number of tumoral B220+CD19+ B cells: greatly increased
[1]; after oxaliplatin treatment
  IgA+CD19+ plasmocytes containing both IL-10 mRNA and protein: 50%
[1]; after the first oxaliplatin cycle
  time at which IgA+ B cells became detectable: 48 h
Myc-Cap (MC) tumors; Cd8a−/− mice
  response of MC tumors: No response
Myc-Cap (MC) tumors; Iga−/− mice versus WT
  response of MC tumors to oxaliplatin with IgA ablation: potentiated the response to oxaliplatin
Myc-Cap (MC) tumors; 6 mg/kg
  regression of MC tumors raised in Jh−/− mice: led to regression of MC tumors
Myc-Cap (MC) tumors; MC tumors in Rag1−/− mice
  tumor regression and CTL activation after T cell ± B cell transfer: induced tumor regression and CTL activation only in mice receiving T cells, or T cells+TGFβR2-deficient B cells
Myc-Cap (MC) tumors; WT and Jh−/− mice
  tumor infiltration with CD45+ cells: enhanced tumor infiltration with CD45^+ cells
Myc-Cap (MC) tumors; WT mice, early treatment
  response of small MC tumors (≤100 mm3): chemotherapy responsive
Myc-Cap (MC) tumors; WT versus Jh−/− mice, late treatment
  response of large MC tumors (≥350-400 mm3): shrank upon oxaliplatin treatment only in Jh^−/− mice
Myc-Cap (MC) tumors; associated with oxaliplatin responsiveness
  caspase 3 activation in tumors (apoptosis): enhanced caspase 3 activation
Myc-Cap (MC) tumors; regardless of host genotype
  tumoral DNA damage response (histone H2AX phosphorylation): similarly activated
[2]
  IgA production and other immune parameters: no effect
Serum IgA, IgG
  serum IgA: increased serum IgA
  serum IgG: little effect on serum IgG

Source: patent publication US10722523B2, “Chemoimmunotherapy for epithelial cancer” (THE REGENTS OF THE UNIVERSITY OF CALIFORNIA, priority 2015, dated 2020)
